This is an account of results in ChEMBL document CHEMBL4476883, “Hydroxy formamide derivatives and their use” (2017).

Assay [1] has as its target T1, Tolloid-like protein 2 (Homo sapiens, UniProt Q9Y6L7).
T1 sequence (Q9Y6L7 whole entry): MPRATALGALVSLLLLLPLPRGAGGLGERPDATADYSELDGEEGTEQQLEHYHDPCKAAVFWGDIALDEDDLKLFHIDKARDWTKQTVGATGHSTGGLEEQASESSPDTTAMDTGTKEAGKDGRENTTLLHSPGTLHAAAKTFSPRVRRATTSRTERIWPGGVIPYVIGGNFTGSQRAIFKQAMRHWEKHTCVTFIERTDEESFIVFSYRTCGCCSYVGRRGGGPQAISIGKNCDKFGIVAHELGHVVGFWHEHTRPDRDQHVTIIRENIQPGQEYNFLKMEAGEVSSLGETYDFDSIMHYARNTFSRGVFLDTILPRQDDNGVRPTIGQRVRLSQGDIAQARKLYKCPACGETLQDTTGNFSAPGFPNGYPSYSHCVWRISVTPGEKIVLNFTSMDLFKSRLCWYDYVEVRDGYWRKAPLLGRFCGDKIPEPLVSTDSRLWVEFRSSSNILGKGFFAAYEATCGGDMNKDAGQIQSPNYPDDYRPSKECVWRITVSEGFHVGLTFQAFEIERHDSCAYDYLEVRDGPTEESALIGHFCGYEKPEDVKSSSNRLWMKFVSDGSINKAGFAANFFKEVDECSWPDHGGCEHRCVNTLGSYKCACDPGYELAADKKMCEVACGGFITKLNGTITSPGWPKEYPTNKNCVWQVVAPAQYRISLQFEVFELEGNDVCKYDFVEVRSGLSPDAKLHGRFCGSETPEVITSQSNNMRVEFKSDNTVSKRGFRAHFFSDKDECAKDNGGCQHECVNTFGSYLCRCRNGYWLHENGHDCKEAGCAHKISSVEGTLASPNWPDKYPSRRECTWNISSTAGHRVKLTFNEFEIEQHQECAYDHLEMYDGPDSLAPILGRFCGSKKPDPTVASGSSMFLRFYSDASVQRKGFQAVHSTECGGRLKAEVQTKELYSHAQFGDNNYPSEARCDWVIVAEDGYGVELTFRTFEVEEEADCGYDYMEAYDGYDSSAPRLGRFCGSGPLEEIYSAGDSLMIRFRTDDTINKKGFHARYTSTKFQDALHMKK
As to the kind of experiment: Inhibition of C-terminal Avi-6x-His epitope tagged and N-terminal human RAGE signal sequence tagged recombinant human TLL2 (26 to 1015 amino acids) expressed in CHOE1A cells incubated for 60 mins with promyostatin peptide substrate by FRET based assay. The assay is classed as cell-based.

Assay [2] deals with Tolloid-like protein 1 (Homo sapiens, UniProt O43897, I156V/N221S/V284A). Put plainly: Inhibition of recombinant human TLL1 I156V/N221S/V284A mutant expressed in CHOE1A cells pre-incubated for 10 mins before promyostatin peptide substrate addition and measured after 60 mins by FRET based assay. The assay is classed as cell-based.
Chain of Tolloid-like protein 1 (O43897 148-1013 I156V/N221S/V284A limits assumed): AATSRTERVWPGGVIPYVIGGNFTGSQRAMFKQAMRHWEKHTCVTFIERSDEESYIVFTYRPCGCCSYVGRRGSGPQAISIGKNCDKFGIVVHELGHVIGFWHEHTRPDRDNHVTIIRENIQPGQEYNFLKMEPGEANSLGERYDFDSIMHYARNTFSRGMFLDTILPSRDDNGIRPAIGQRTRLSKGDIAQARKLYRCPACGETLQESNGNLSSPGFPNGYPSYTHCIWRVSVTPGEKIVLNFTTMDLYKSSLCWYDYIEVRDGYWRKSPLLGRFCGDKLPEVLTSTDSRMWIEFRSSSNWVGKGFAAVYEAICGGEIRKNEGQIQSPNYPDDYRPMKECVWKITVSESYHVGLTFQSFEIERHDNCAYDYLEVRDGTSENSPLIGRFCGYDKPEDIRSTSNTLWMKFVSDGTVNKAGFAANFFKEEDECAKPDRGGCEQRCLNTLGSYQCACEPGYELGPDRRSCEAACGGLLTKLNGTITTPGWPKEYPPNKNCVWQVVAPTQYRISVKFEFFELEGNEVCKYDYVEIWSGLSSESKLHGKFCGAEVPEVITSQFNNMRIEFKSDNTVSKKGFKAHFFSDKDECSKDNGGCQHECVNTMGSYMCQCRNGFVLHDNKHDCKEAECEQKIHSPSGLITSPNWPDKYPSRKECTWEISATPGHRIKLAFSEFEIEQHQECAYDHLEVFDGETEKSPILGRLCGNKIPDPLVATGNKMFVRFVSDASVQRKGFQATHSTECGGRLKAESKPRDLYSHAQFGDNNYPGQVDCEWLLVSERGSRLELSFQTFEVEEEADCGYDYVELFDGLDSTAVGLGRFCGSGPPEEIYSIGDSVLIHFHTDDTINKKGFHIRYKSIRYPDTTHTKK
The target of assay [3] is T2, Bone morphogenetic protein 1 (Homo sapiens, UniProt P13497).
T2 sequence (P13497 whole entry): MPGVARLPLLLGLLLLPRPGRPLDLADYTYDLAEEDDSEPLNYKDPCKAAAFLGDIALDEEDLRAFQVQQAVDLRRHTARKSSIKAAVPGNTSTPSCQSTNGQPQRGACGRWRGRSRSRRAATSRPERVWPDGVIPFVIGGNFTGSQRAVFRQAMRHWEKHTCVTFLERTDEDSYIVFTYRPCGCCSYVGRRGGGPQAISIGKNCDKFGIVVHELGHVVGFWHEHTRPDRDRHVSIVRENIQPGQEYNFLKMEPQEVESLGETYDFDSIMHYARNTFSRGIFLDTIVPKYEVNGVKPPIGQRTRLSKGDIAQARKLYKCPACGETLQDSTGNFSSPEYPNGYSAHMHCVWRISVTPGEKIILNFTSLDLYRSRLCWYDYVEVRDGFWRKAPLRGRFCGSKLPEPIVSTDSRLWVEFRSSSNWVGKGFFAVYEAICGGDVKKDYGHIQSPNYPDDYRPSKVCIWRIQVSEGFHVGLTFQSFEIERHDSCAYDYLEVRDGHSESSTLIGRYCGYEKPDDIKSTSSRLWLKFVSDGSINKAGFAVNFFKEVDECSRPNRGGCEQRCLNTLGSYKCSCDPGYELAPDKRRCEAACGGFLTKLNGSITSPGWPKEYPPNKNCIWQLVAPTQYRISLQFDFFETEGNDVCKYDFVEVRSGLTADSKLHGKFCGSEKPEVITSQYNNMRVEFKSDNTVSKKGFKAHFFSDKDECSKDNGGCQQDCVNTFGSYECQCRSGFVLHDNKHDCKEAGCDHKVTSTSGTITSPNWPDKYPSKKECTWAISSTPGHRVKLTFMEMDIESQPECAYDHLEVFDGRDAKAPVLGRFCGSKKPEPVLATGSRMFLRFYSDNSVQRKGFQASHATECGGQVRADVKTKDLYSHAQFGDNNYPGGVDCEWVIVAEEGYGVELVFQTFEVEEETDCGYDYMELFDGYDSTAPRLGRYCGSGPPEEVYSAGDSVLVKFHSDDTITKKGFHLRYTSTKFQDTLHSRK
Put plainly: Inhibition of C-terminal FLAG-6x-His epitope tagged and N-terminal human RAGE signal sequence tagged human BMP1 (23 to 721 amino acids) expressed in CHO-E1A cells pre-incubated for 10 mins before promyostatin peptide substrate addition and measured after 30 mins using 50 nM BMP1 by FRET based assay. The assay is classed as cell-based.

Assay [4] is described as follows: Reduction in PICP levels in human cardiac fibroblasts incubated for 24 to 48 hrs by ELISA. The assay is classed as functional. Background: In an ELISA, binding on a coated surface is turned into a signal by an enzyme label.
Assay [5] has as its target T2, Bone morphogenetic protein 1. Put plainly: Inhibition of C-terminal FLAG-6x-His epitope tagged and N-terminal human RAGE signal sequence tagged human BMP1 (23 to 721 amino acids) expressed in CHO-E1A cells pre-incubated for 10 mins before promyostatin peptide substrate addition and measured after 60 mins using 0.5 nM BMP1 by FRET based assay. Type of assay: cell-based.

A word on the IC50: it is the concentration at which inhibition is half-maximal. Turning to `CCCCC[C@@H](C(=O)NCNC(=O)c1cccc(-c2ccc(CC(=O)O)c(OCC)c2)n1)[C@@H](CC)N(O)C=O`, the half-inhibitory concentration (IC50) in assay [1] is under 631 nM; in assay [2], under 398 nM; in assay [3], under 251 nM; in assay [4], under 20000 nM; in assay [5] it was under 126 nM.
For `CCCCC[C@@H](C(=O)NCNC(=O)c1cccc(-c2ccc(C(=O)O)c(OCC)c2)n1)[C@@H](CC)N(O)C=O`, in that order: under 631 nM, under 398 nM, under 251 nM, under 20000 nM and under 126 nM.
Take `CCCCC[C@@H](C(=O)NCNC(=O)c1cccc(-c2ccc(C3(C(=O)O)CC3)cc2)n1)[C@@H](CC)N(O)C=O`: the IC50 was under 631 nM in assay [1]; under 398 nM in assay [2]; under 251 nM in assay [3]; under 20000 nM in assay [4]; under 126 nM in assay [5].
The matching figures for `CCCCC[C@@H](C(=O)NCNC(=O)c1cccc(-c2ccc(C(=O)O)c(OCC)c2)c1)[C@@H](CC)N(O)C=O`: under 631 nM, under 398 nM, under 251 nM, under 20000 nM and under 126 nM.
In the case of `CCCCC[C@H](CN(O)C=O)C(=O)NCNC(=O)c1cc(C(F)(F)F)cc(-c2ccccc2)n1`, the IC50 in assay [1] is under 631 nM; in assay [2], under 398 nM; in assay [3] it was under 251 nM; in assay [4] it was under 20000 nM; in assay [5], under 126 nM.
For the molecule `CCCCC[C@H](CN(O)C=O)C(=O)NCNC(=O)c1cccc(Oc2ccc(OC)nc2)c1`, the IC50 in assay [1] was under 631 nM; in assay [2] it was under 398 nM; in assay [3], under 251 nM; in assay [4], under 20000 nM; in assay [5], under 126 nM.
The matching figures for `CCCCC[C@H](CN(O)C=O)C(=O)NCNC(=O)c1cccc(-c2cccc(OC)c2)c1F`: under 631 nM, under 398 nM, under 251 nM, under 20000 nM and under 126 nM.
As to `CCCCC[C@H](CN(O)C=O)C(=O)NCNC(=O)c1cccc(-c2cc(OC)ccc2F)c1F`, the IC50 is under 631 nM in assay [1]; under 398 nM in assay [2]; under 251 nM in assay [3]; under 20000 nM in assay [4]; under 126 nM in assay [5].
As to `CCCCC[C@@H](C(=O)NCNC(=O)c1cccc(-c2ccc(OC)c(C(=O)O)c2)n1)[C@@H](CC)N(O)C=O`, the 50% inhibitory concentration (IC50) in assay [1] was under 631 nM; in assay [2], under 398 nM; in assay [3] it was under 251 nM; in assay [4] it was under 20000 nM; in assay [5], under 126 nM.
For `CCCCC[C@@H](C(=O)NCNC(=O)c1cccc(-c2ccc(F)c(C(=O)O)c2)n1)[C@@H](CC)N(O)C=O`, the IC50 in assay [1] was under 631 nM; in assay [2], under 398 nM; in assay [3] it was under 251 nM; in assay [4] it was under 20000 nM; in assay [5], under 126 nM.
The matching figures for `CCCCC[C@@H](C(=O)NCNC(=O)c1cccc(-c2ccc(C(C)(C)C(=O)O)cc2)n1)[C@@H](CC)N(O)C=O`: under 631 nM, under 398 nM, under 251 nM, under 20000 nM and under 126 nM.
With `CCCCC[C@H](CN(O)C=O)C(=O)NCNC(=O)c1cccc(-c2cc(OCC)cc(C(=O)O)c2)n1`, the half-maximal inhibitory concentration (IC50) was under 631 nM in assay [1]; under 398 nM in assay [2]; under 251 nM in assay [3]; under 20000 nM in assay [4]; under 126 nM in assay [5].
For `CCCCC[C@@H](C(=O)NCNC(=O)c1cccc(-c2ccc(P(=O)(O)O)c(OCC)c2)n1)[C@@H](CC)N(O)C=O`, in that order: under 631 nM, under 398 nM, under 251 nM, under 20000 nM and under 126 nM.
As to `CCCCC[C@H](CN(O)C=O)C(=O)NCNC(=O)c1cccc(-c2nc(C)c(C)o2)c1`, the IC50 in assay [1] is under 631 nM; in assay [2] it was under 398 nM; in assay [3] it was under 251 nM; in assay [4], under 20000 nM; in assay [5], under 126 nM.
Consider `CCCCC[C@@H](C(=O)NCNC(=O)c1cccc(-c2ccc(CC(=O)O)cc2)n1)[C@@H](CC)N(O)C=O`, for which the IC50 in assay [1] is under 631 nM; in assay [2], under 398 nM; in assay [3], under 251 nM; in assay [4], under 20000 nM; in assay [5] it was under 126 nM.
For `CCCCC[C@@H](C(=O)NCNC(=O)c1cccc(-c2cccc(C(=O)O)c2C)n1)[C@@H](CC)N(O)C=O`, in that order: under 631 nM, under 398 nM, under 251 nM, under 20000 nM and under 126 nM.
For `CCCCC[C@H](CN(O)C=O)C(=O)NCNC(=O)c1cccc(-c2ccccc2)c1`, in that order: under 631 nM, under 398 nM, under 251 nM, under 20000 nM and under 126 nM.
Consider `CCCCC[C@H](CN(O)C=O)C(=O)NCNC(=O)c1cccc(-n2cc(C)cn2)c1`, for which the IC50 was under 631 nM in assay [1]; under 398 nM in assay [2]; under 251 nM in assay [3]; under 20000 nM in assay [4]; under 126 nM in assay [5].
As for `CCCCC[C@H](CN(O)C=O)C(=O)NCNC(=O)c1cccc(-c2ccc(OC(F)(F)F)cc2)n1`, the concentration for half-maximal inhibition (IC50) in assay [1] is under 631 nM; in assay [2] it was under 398 nM; in assay [3], under 251 nM; in assay [4], under 20000 nM; in assay [5] it was under 126 nM.
For the molecule `CCCCC[C@H](CN(O)C=O)C(=O)NCNC(=O)c1ccc(F)c(-c2ccccc2)n1`, the IC50 in assay [1] is under 631 nM; in assay [2] it was under 398 nM; in assay [3], under 251 nM; in assay [4], under 20000 nM; in assay [5], under 126 nM.
For `CCCCC[C@H](CN(O)C=O)C(=O)NCNC(=O)c1cncc(-c2ccccc2)n1`, the 50% inhibitory concentration (IC50) in assay [1] was under 631 nM; in assay [2], under 398 nM; in assay [3], under 251 nM; in assay [4], under 20000 nM; in assay [5], under 126 nM.
For the molecule `CCCCC[C@@H](C(=O)NCNC(=O)c1cccc(-c2cccc(OC)c2F)c1F)[C@@H](CC)N(O)C=O`, the concentration for half-maximal inhibition (IC50) in assay [1] is under 631 nM; in assay [2] it was under 398 nM; in assay [3], under 251 nM; in assay [4], under 20000 nM; in assay [5], under 126 nM.
